Literature values as cited in PMC5989765, “The safety, tolerability, and pharmacokinetic profile of GSK2838232, a novel 2nd generation HIV maturation inhibitor, as assessed in healthy subjects” (Pharmacology Research & Perspectives, 2018).

Key:
[1] = system: HIV; conditions: cited from earlier work
[2] = system: HIV; design: method as in PMID 20154583; conditions: cited from earlier work

| SMILES | anti‐HIV potency compared to BVM ([1]; Phase IIa clinical studies) | safety ([1]; Phase IIa clinical studies) | potency in the presence of human serum [2] | efficacy against naturally occurring polymorphisms in the HIV gag region (CA & Sp1) [1] |
| --- | --- | --- | --- | --- |
| C=C(C)[C@@H]1CC[C@]2(NCCN3CCS(=O)(=O)CC3)CC[C@]3(C)[C@H](CC[C@@H]4[C@@]5(C)CC=C(c6ccc(C(=O)O)cc6)C(C)(C)[C@@H]5CC[C@]43C)[C@@H]12 [BMS‐955176] | greater and dose‐related anti‐HIV potency | no obvious safety concerns | – | – |
| C=C(C)[C@@H]1CC[C@]2(C(=O)O)CC[C@]3(C)[C@H](CC[C@@H]4[C@@]5(C)CC[C@H](OC(=O)CC(C)(C)C(=O)O)C(C)(C)[C@@H]5CC[C@]43C)[C@@H]12 [BVM, Bevirimat] | – | – | significant decrease in potency | lack of efficacy |
